Columns and labels:
[1] = tested on: Rb phosphorylation in rat PBMCs; assay: Rb phosphorylation in ex vivo PMA-stimulated rat PBMCs after a single oral dose; conditions: single oral dose 80 mg/kg
Experimental: The dose selected was 80 mg/kg, determined to be an efficacious dose in this animal model. Tumor growth inhibition in the MTLn3 xenograft model after 2 to 3 weeks of oral dosing at 80 mg/kg once weekly averaged 90% with 2/10 complete regressions. COMPOUND A was dosed on day 10 post implantation of cells, at which time the tumors were 100-200 mm^3 in size. In this pharmacokinetic/pharmacodynamic experiment, plasma and tumors were collected at 1, 2, 6, 24 and 72 hours post dosing of a single oral dose of COMPOUND A. Tumors were removed and immediately snap frozen in liquid nitrogen and stored at −80° C. until drug concentration analysis. […] Concentrations of COMPOUND A in plasma and tumors were determined in the same three animals per time point. […] Peripheral blood mononuclear cells (PBMCs) were isolated, stimulated ex vivo with mitogen and analyzed by Western blot as described below. […]
(§1) PBMCs were collected by transferring the cells, including attached cells and those in suspension, into 50 ml tubes. […] Samples were sonicated on ice for 30 seconds, clarified by centrifugation at 16,000×g for 10 minutes at 4° C. and protein concentrations determined using Non-Interfering Protein Assay Kit (Geno Technology Incorporated, Maplewood, Mo.). […] For Western blotting, total Rb was detected using antibody from Pharmingen (BD Bioscience, San Diego, Calif.) at a dilution of 1:2000. […]

[2] = tested on: MTLn3 cells; assay: cell growth inhibition in rat tumor cell line; format: cell-based
[3] = tested on: Rb phosphorylation in human PBMCs; assay: Rb phosphorylation in human PBMCs treated ex vivo; format: cell-based; conditions: PMA stimulated, 0.2 to 2.0 μM, Western blot
Experimental: Approximately 10 mls of blood was collected from five healthy human volunteers into sodium heparin treated Vacutainer blood collection tubes by Employee Health Services. PBMCs were separated using the Lymphocyte Separation Medium (LSM) and protocol supplied by ICN Biomedicals Inc. (Costa Mesa, Calif.). Briefly whole blood was diluted 1:1 with cold HBSS (Hanks Balanced Salt Solution), layered onto the LSM and centrifuged. The band of mononuclear cells above the LSM was collected, transferred to a new tube and washed once with cold HBSS. Cells were resuspended in RPMI 1640, 10% HI-FBS, 2 mM L-glutamine and 0.01 mg/ml Gentamicin Reagent Solution (GIBCO/Invitrogen). […]
as §1, with “1:2000. Lysates were analysed by Western blotting for Rb phosphorylation using polyclonal antibodies against phosphorylated serine 795, serine 780, threonine 821 and serine 807/811 in human Rb (FIG. 8).” for “1:2000.”

IC50 [2]: 170 nM | IC90 [2]: 240 nM
Structure (SMILES): COc1ccc(F)c(F)c1C(=O)c1cnc(NC2CCN(S(C)(=O)=O)CC2)nc1N [COMPOUND A, [4-amino-2-(1-methanesulfonylpiperidin-4-ylamino)pyrimidin-5-yl]-(2,3-difluoro-6-methoxyphenyl)methanone]
Total Rb levels in PBMCs ([1]; female Fischer rats): did not appear to decrease | Rb phosphorylation (serine 795) in ex vivo stimulated PBMCs ([1]; female Fischer rats, 2, 6 and up to 24 hours post treatment, Western blot): decrease in Rb phosphorylation | Rb phosphorylation at the serine 807/811 site ([3]; human PBMCs of two donors): complete inhibition of phosphorylation | Rb phosphorylation at the threonine 821 site ([3]; human PBMCs, 24 hours incubation): not inhibited at any concentration

Reference: patent publication US20060269482A1 (priority 2005, published 2006)
